Molecules are shown by their SMILES.

The record followed here is patent US8933230B2, “Phosphorus-containing group-substituted quinoline, its preparation process, medical composition containing the compounds and application” (priority 2011, dated 2015).

For data set [1], the system named is GTL-16 human gastric cancer cells. Briefly: Anti-tumor experiment, GTL-16 xenograft in nude mice. The following applies: after 14 days, 50 mg/kg qd p.o. The data set is classed as in vivo, BALB/c-nu/nu mice. From the text: Anti-tumor experiments: in this example, N1-[4-[[7-[3-(diethoxyphosphorylmethylamino)propoxyl]-6-methoxyl-4-quinolyl]oxyl]-3-fluorophenyl]-N1′-(4-fluorophenyl)cyclopropane-1,1-dicarboxamide obtained from Example 3 is used in the anti-tumor experiments in nude mice animal model of xenograft GTL-16 human gastric cancer cells, the methods and results are as follows:
7-8 weeks old SPF level female BALB/c-nu/nu mice with 16-20 g of body weights are purchased from Experimental Animal Center of Guangdong Province, inspection certificate number: NO:0072659. GTL-16 gastric cancer cells are purchased from the Cell Source Center of Shanghai Institutes for Biological Sciences. RPM 1-1640 cell culture medium, fetal calf serum (FBS) and digestive juice of trypsin are from Gibco Corporation. All the antibiotics are purchased from Sigma Company.
(§1) Firstly culturing the GTL-16 gastric cancer cells: GTL-16 cell line is inoculated in RPM 1-1640 culture solution containing 10% FBS, 100 U/ml penicillin, 100 U/ml streptomycin, and cultured at 37° C., 5% CO2, 100% humidity in a carbon dioxide cell incubator, the cells enter into logarithmic growth phase after 24 hours, after 48 hours of inoculation, the cells grow to cover the bottom of the culture bottle. […]

The nature of data set [2]: Body weight of GTL-16 tumor-bearing nude mice under treatment. The format is in vivo, BALB/c-nu/nu mice. The following applies: after treating for 14 days, 50 mg/kg qd p.o. How it is done: as §1, with “bottle. Then the GTL-16 cells covering 80% bottom of the culture bottle are digested, 5 minutes after centrifuging at 1000 r/min, the cells are diluted to 2×10^7/ml and implanted subcutaneously in the right anterior axillary fossa with 0.1 ml per mouse.” for “bottle.”

In the case of `CCOP(=O)(CNCCCOc1cc2nccc(Oc3ccc(NC(=O)C4(C(=O)Nc5ccc(F)cc5)CC4)cc3F)c2cc1OC)OCC` [Example 3, N1-[4-[[7-[3-(diethoxyphosphorylmethylamino)propoxyl]-6-methoxyl-4-quinolyl]oxyl]-3-fluorophenyl]-N1′-(4-fluorophenyl)cyclopropane-1,1-dicarboxamide], the “Tumor Growth Inhibition (TGI)” value in data set [1] was determined as 85%. Also, in data set [1] (mean±SD, n=8), the average tumor volume stood at 57.1±61.2 mm^3. In addition, the body weight change in data set [2] is below 5%.
